Source: patent publication US20260226068A1, “IMIDAZOTRIAZINE IL-17A MODULATORS AND USES THEREOF” (DICE ALPHA, INC., priority 2023, published 2026)

How the values were obtained:
[1] = target: T1, IL-17A/F (Homo sapiens, UniProt Q16552+Q96PD4); test: IL-17A/F HEK-Blue cell assay (SEAP reporter); format: cell-based; details: HEK-Blue IL-17A reporter cells, IL17A/F 5 ng/mL, 20 hours, SEAP read at A630; read-out: HEK-Blue IL17AF (IC50 for IL-17A/F inhibition)
T1 construct: purchased R&D Systems
T1 sequence (Q16552 24-155): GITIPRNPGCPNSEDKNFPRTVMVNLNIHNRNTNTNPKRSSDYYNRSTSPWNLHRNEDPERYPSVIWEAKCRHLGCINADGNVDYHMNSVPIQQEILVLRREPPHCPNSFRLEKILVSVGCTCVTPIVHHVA
T1 sequence (Q96PD4 31-163): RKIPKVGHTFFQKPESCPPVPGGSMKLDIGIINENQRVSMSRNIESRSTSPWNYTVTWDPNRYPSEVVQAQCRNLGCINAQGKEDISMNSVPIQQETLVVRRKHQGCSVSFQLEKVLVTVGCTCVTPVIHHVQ

[2] = target: T2, IL-17A/A (Homo sapiens, UniProt Q16552); test: IL-17A/A HEK-Blue cell assay (SEAP reporter); format: cell-based; details: HEK-Blue IL-17A reporter cells, IL17A/A 5 ng/mL, 20 hours, SEAP read at A630; read-out: HEK-Blue IL17AA (IC50 for IL-17A/A inhibition)
T2 construct: purchased Genscript Z03228
T2 sequence (Q16552 24-155): T1 sequence (Q16552 24-155)

IC50 [1] [nM]	IC50 [2] [nM]	SMILES
> 1000	< 100	CC(C)n1nccc1C(=O)N[C@H](c1cn2nc(CC3C[C@@H](C(F)(F)F)CNC3=O)cnc2n1)C1CCC(F)(F)CC1 (stereo partly drawn) [Compound 6, N—((S)-(4,4-difluorocyclohexyl)(2-(((5R)-2-oxo-5-(trifluoromethyl)piperidin-3-yl)methyl)imidazo[1,2-b][1,2,4]triazin-6-yl)methyl)-1-isopropyl-1H-pyrazole-5-carboxamide]
100 to 1000	< 100	CCn1nccc1C(=O)N[C@H](c1cn2nc(C[C@H]3C[C@@H](C(F)(F)F)CNC3=O)c(CN3CC4CC(C3)C4(F)F)nc2n1)C1CCC(F)(F)CC1 [Compound 348, N-((1S)-(3-((6,6-difluoro-3-azabicyclo[3.1.1]heptan-3-yl)methyl)-2-(((3R,5R)-2-oxo-5-(trifluoromethyl)piperidin-3-yl)methyl)imidazo[1,2-b][1,2,4]triazin-6-yl)(4,4-difluorocyclohexyl)methyl)-1-ethyl-1H-pyrazole-5-carboxamide]
100 to 1000	< 100	CCc1nocc1C(=O)N[C@H](c1cn2nc(C[C@H]3C[C@@H](C(F)(F)F)CNC3=O)c(C3CCOCC3)nc2n1)C1CCC(F)(F)CC1 [Compound 146, N-((1S)-(4,4-difluorocyclohexyl)(2-(((3R,5R)-2-oxo-5-(trifluoromethyl)piperidin-3-yl)methyl)-3-(tetrahydro-2H-pyran-4-yl)imidazo[1,2-b][1,2,4]triazin-6-yl)methyl)-3-ethylisoxazole-4-carboxamide]
> 1000	100 to 1000	CCn1nccc1C(=O)N[C@H](c1cn2nc(CN3C[C@@H](C(F)(F)F)CNC3=O)c(C3CCOCC3)nc2n1)C1CCC(F)(F)CC1 [Compound 436]
100 to 1000	< 100	Cn1nccc1C(=O)N[C@H](c1cn2nc(C[C@H]3C[C@@H](C(F)(F)F)CNC3=O)c(C3CCOCC3)nc2n1)C1CCC(F)(F)CC1 [Compound 150, N-((1S)-(4,4-difluorocyclohexyl)(2-(((3R,5R)-2-oxo-5-(trifluoromethyl)piperidin-3-yl)methyl)-3-(tetrahydro-2H-pyran-4-yl)imidazo[1,2-b][1,2,4]triazin-6-yl)methyl)-1-methyl-1H-pyrazole-5-carboxamide]
100 to 1000	< 100	Cn1nccc1C(=O)N[C@H](c1cn2nc(C[C@H]3C[C@@H](C(F)(F)F)CNC3=O)c(C3CCC(F)(F)CC3)nc2n1)C1CCC(F)(F)CC1 [Compound 262, N—((S)-(4,4-difluorocyclohexyl)(3-(4,4-difluorocyclohexyl)-2-(((3R,5R)-2-oxo-5-(trifluoromethyl)piperidin-3-yl)methyl)imidazo[1,2-b][1,2,4]triazin-6-yl)methyl)-1-methyl-1H-pyrazole-5-carboxamide]
100 to 1000	< 100	CCn1nccc1C(=O)N[C@@H](c1cn2nc(C[C@H]3C[C@@H](C(F)(F)F)CNC3=O)c(C3CCOCC3)nc2n1)C1CC2CC2C1 (stereo partly drawn) [Compound 198]
< 100	< 100	CCn1nccc1C(=O)N[C@H](c1cn2nc(C[C@H]3C[C@@H](C(F)(F)F)CNC3=O)c(N3CCN(C)[C@H](C)C3)nc2n1)C1CCC(F)(F)CC1 [Compound 298, N—((S)-(4,4-difluorocyclohexyl)(3-((R)-3,4-dimethylpiperazin-1-yl)-2-(((3R,5R)-2-oxo-5-(trifluoromethyl)piperidin-3-yl)methyl)imidazo[1,2-b][1,2,4]triazin-6-yl)methyl)-1-ethyl-1H-pyrazole-5-carboxamide]
> 1000	< 100	CCn1nccc1C(=O)N[C@H](c1cn2nc(C[C@H]3C[C@@H](C(F)(F)F)CNC3=O)c([C@H](C)C3CCOCC3)nc2n1)C1CCC(F)(F)CC1 (single isomer, unassigned) [Compound 251]
> 1000	100 to 1000	CCn1nccc1C(=O)N[C@H](c1cn2nc(C[C@H]3C[C@@H](C(F)(F)F)CNC3=O)c(C3COC4(C3)CN(C)C4)nc2n1)C1CCC(F)(F)CC1 (stereo partly drawn) [Compound 355, N-((1S)-(4,4-difluorocyclohexyl)(3-(2-methyl-5-oxa-2-azaspiro[3.4]octan-7-yl)-2-(((3R,5R)-2-oxo-5-(trifluoromethyl)piperidin-3-yl)methyl)imidazo[1,2-b][1,2,4]triazin-6-yl)methyl)-1-ethyl-1H-pyrazole-5-carboxamide]
100 to 1000	< 100	CCn1nccc1C(=O)N[C@H](c1cn2nc(C[C@H]3C[C@@H](C(F)(F)F)CNC3=O)c(C3Cc4cncnc4C3)nc2n1)C1CCC(F)(F)CC1 (single isomer, unassigned) [Compound 402]
> 1000	100 to 1000	CCn1nccc1C(=O)N[C@H](c1cn2nc(C[C@@H]3C[C@@H](C(F)(F)F)CNC3=O)cnc2n1)C1CCC(F)(F)CC1 [Compound 28]
100 to 1000	< 100	Cn1nccc1C(=O)N[C@H](c1cn2nc(C[C@H]3C[C@@H](C(F)(F)F)CNC3=O)c([C@H]3CCCOC3)nc2n1)[C@H]1CCCC(F)(F)C1 (single isomer, unassigned) [Compound 267]
> 1000	100 to 1000	CCn1nccc1C(=O)N[C@H](c1cn2nc(C[C@H]3C[C@@H](C(F)(F)F)CNC3=O)c(C3CCCN3C)nc2n1)C1CCC(F)(F)CC1 (stereo partly drawn) [Compound 413]
100 to 1000	< 100	CCn1nccc1C(=O)N[C@H](c1cn2nc(C[C@H]3C[C@@H](C(F)(F)F)CNC3=O)c(N3CCN(C)CC3)nc2n1)C1CCC(F)(F)CC1 [Compound 296, N—((S)-(4,4-difluorocyclohexyl)(3-(4-methylpiperazin-1-yl)-2-(((3R,5R)-2-oxo-5-(trifluoromethyl)piperidin-3-yl)methyl)imidazo[1,2-b][1,2,4]triazin-6-yl)methyl)-1-ethyl-1H-pyrazole-5-carboxamide]

Further lines, the compound ahead of its results:

SMILES	IC50 [1] [nM]	IC50 [2] [nM]
CCc1nonc1C(=O)N[C@H](c1cn2nc(C[C@@H]3C[C@@H](C)CNC3=O)c(C3CCOCC3)nc2n1)C1CCC(F)(F)CC1 [Compound 394]	> 1000	< 100
CCn1nccc1C(=O)N[C@H](c1cn2nc(CC3CC(F)(F)CNC3=O)c(N3CCOCC3)nc2n1)C1CCC(F)(F)CC1 (single isomer, unassigned) [Compound 64]	> 1000	< 100
CCn1nccc1C(=O)N[C@H](c1cn2nc(C[C@H]3C[C@@H](C(F)(F)F)CNC3=O)c(CC3CCOCC3)nc2n1)[C@H]1CC[C@H](C)CC1 [Compound 179, 1-ethyl-N-((1S)-((1R,4S)-4-methylcyclohexyl)(2-(((3R,5R)-2-oxo-5-(trifluoromethyl)piperidin-3-yl)methyl)-3-((tetrahydro-2H-pyran-4-yl)methyl)imidazo[1,2-b][1,2,4]triazin-6-yl)methyl)-1H-pyrazole-5-carboxamide]	< 100	< 100
CCc1nonc1C(=O)N[C@H](c1cn2nc(C[C@@H]3C[C@H](C)CNC3=O)c(C3CCOCC3)nc2n1)C1CCC(F)(F)CC1 [Compound 396]	> 1000	< 100
Cc1nonc1C(=O)N[C@H](c1cn2nc(C[C@H]3C[C@@H](C(F)(F)F)CNC3=O)c(C3CCOCC3)nc2n1)C1CCCCC1 [Compound 313, N—((S)-cyclohexyl(2-(((3R,5R)-2-oxo-5-(trifluoromethyl)piperidin-3-yl)methyl)-3-(tetrahydro-2H-pyran-4-yl)imidazo[1,2-b][1,2,4]triazin-6-yl)methyl)-4-methyl-1,2,5-oxadiazole-3-carboxamide]	> 1000	< 100
O=C(N[C@H](c1cn2nc(C[C@H]3C[C@@H](C(F)(F)F)CNC3=O)cnc2n1)C1CCC(F)(F)CC1)c1conc1C1CC1 [Compound 38]	> 1000	100 to 1000
CCn1nccc1C(=O)N[C@H](c1cn2nc(CC3C[C@@H](C(F)(F)F)CNC3=O)cnc2n1)[C@H]1CC[C@H](C)CC1 (single isomer, unassigned) [Compound 1]	> 1000	< 100
O=C(N[C@H](c1cn2nc(CC3C[C@@H](C(F)(F)F)CNC3=O)c(N3CCOCC3)nc2n1)C1CCC(F)(F)CC1)c1nonc1C1CC1 (single isomer, unassigned) [Compound 21]	> 1000	< 100
CCn1nccc1C(=O)N[C@@H](CCC(C)(C)C(F)(F)F)c1cn2nc(C[C@H]3C[C@@H](C(F)(F)F)CNC3=O)c(C3CCOCC3)nc2n1 (single isomer, unassigned) [Compound 217]	> 1000	< 100
CCn1nccc1C(=O)N[C@H](c1cn2nc(C[C@@H]3C(=O)NC4CC3C4)c(C3CCOCC3)nc2n1)C1CCC(F)(F)CC1 [Compound 425]	> 1000	100 to 1000
O=C(N[C@H](c1cn2nc(CC3C[C@@H](C(F)(F)F)CNC3=O)c(N3CCOCC3)nc2n1)C1CCC(F)(F)CC1)c1conc1C1CC1(F)F (single isomer, unassigned) [Compound 116]	> 1000	< 100
O=C(N[C@H](c1cn2nc(CC3C[C@@H](C(F)(F)F)CNC3=O)c(N3CCOCC3)nc2n1)C1CCC(F)(F)CC1)c1conc1C1CC1(F)F (single isomer, unassigned) [Compound 113]	100 to 1000	< 100
